According to patent US11406648B2, “C17-heteroaryl derivatives of oleanolic acid and methods of use thereof” (REATA PHARMACEUTICALS, INC., priority 2012, dated 2022):

Tested on: RAW264.7 mouse macrophages
Assay: Suppression of IFNγ-induced NO production (Nitric Oxide Production and Cell Viability Assay)
Format: cell-based
Conditions: IFNγ-induced NO production, Griess reagent, normalized to cell viability, 2 h pre-treatment, IFNγ 24 h
Description: Assay results for the suppression of IFNγ-induced NO production are shown for several of the compounds of the present invention in Table 1 below. […] Details regarding this assay are provided in the Examples section below. Nitric Oxide Production and Cell Viability Assay. RAW264.7 mouse macrophages were plated in 96-well plates at 30,000 cells/well in triplicate in RPMI1640+0.5% FBS and incubated at 37° C. with 5% CO2. On the next day, cells were pre-treated with DMSO or drug (0-200 nM dose range) for 2 hours, and then treated with recombinant mouse IFNγ (R&D Systems) for 24 hours. Nitric Oxide concentration in media was determined using the Griess reagent system (Promega). Cell viability was determined using WST-1 reagent (Roche). IC50 values were determined based on the suppression of IFNγ induced Nitric Oxide production normalized to cell viability.

CC(C)c1nnc([C@]23CCC(C)(C)C[C@H]2[C@H]2C(=O)C=C4[C@@]5(C)C=C(C#N)C(=O)C(C)(C)[C@@H]5CC[C@@]4(C)[C@]2(C)CC3)o1 [TX63476]
IC50: 5.4 nM

CC1(C)CC[C@]2(c3nnco3)CC[C@]3(C)[C@H](C(=O)C=C4[C@@]5(C)C=C(C#N)C(=O)C(C)(C)[C@@H]5CC[C@]43C)[C@@H]2C1 [TX63479]
IC50: 1.1 nM

Cc1nnc([C@]23CCC(C)(C)C[C@H]2[C@H]2C(=O)C=C4[C@@]5(C)C=C(C#N)C(=O)C(C)(C)[C@@H]5CC[C@@]4(C)[C@]2(C)CC3)o1 [TX63384]
IC50: 2 nM

Cc1noc([C@]23CCC(C)(C)C[C@H]2[C@H]2C(=O)C=C4[C@@]5(C)C=C(C#N)C(=O)C(C)(C)[C@@H]5CC[C@@]4(C)[C@]2(C)CC3)n1 [TX63501]
IC50: 1 nM

Cc1nnc(C[C@]23CCC(C)(C)C[C@H]2[C@H]2C(=O)C=C4[C@@]5(C)C=C(C#N)C(=O)C(C)(C)[C@@H]5CC[C@@]4(C)[C@]2(C)CC3)o1 [TX63593]
IC50: 1.7 nM

COCc1nnc([C@]23CCC(C)(C)C[C@H]2[C@H]2C(=O)C=C4[C@@]5(C)C=C(C#N)C(=O)C(C)(C)[C@@H]5CC[C@@]4(C)[C@]2(C)CC3)o1 [TX63478]
IC50: 1.8 nM

CCCc1nnc([C@]23CCC(C)(C)C[C@H]2[C@H]2C(=O)C=C4[C@@]5(C)C=C(C#N)C(=O)C(C)(C)[C@@H]5CC[C@@]4(C)[C@]2(C)CC3)o1 [TX63475]
IC50: 5.7 nM

CC1(C)CC[C@]2(c3nnc(C4CC4)o3)CC[C@]3(C)[C@H](C(=O)C=C4[C@@]5(C)C=C(C#N)C(=O)C(C)(C)[C@@H]5CC[C@]43C)[C@@H]2C1 [TX63477]
IC50: 3.3 nM
